Values of other authors in patent publication US20210290432A1, “KIT FOR PRODUCING KERATOCONJUNCTIVAL COVER SHEET AND METHOD FOR PRODUCING KERATOCONJUNCTIVAL COVER SHEET” (OSAKA UNIVERSITY, priority 2016, published 2021).

For `O=C(NC(Cc1cc(=O)[nH]c2ccccc12)C(=O)O)c1ccc(Cl)cc1` (stereo not shown) [Rebamipide, rebamipide], the solubility in water is given as “poorly soluble in water”.
